This assay relates to IL-1b. The assay is described as follows: Mouse BMDM IL-1b Assay. Type of assay: cell-based. The note with it: Macrophage; C57BL6 bone marrow derived macrophages; 200 ng/mL Ultrapure LPS-B5 3 hours, compound 30 minutes, 5 mM ATP 45 minutes; mouse IL-1b ELISA of supernatant. As for the experimental part:
Example 8: Mouse BMDM IL-1b Assay
Mouse bone marrow cells from C57BL6 tibia and femur were culture in complete Isocov's Media supplemented with 20 ng/mL MCSF (BMDM media) at a density of 50 million cells/15 cm Petri dish. Fresh media was changed every 3 days, and bone marrow derived macrophages were collected, washed, and counted on day 7. Cells were seeded into 96 well plates at a density of 5×10^4 cells per well in 100 uL of BMDM media and cultured overnight. The cells were stimulated at 37° C. with 200 ng/mL Ultrapure LPS-B5 for 3 hours before pre-diluted compounds were added. 30 minutes after compound addition, 5 mM ATP was added for the secondary stimulation for 45 minutes. After stimulation, the plates were briefly spun down, and 50 uL of supernatant was harvested from each well. ELISA for mouse IL-1b was performed with 1:10 and 1:100 diluted supernatant using pre-coated kits. IL-1b concentrations were calculated based on pre-titrated standards, and compound inhibition IC50 is generated using the Levenberg Marquardt damped lease-square method.
In general terms: In an ELISA, binding on a coated surface is turned into a signal by an enzyme label.
For the molecule `O=C(Nc1c2c(cc3c1CCC3)CCC2)NS(=O)(=O)c1cc2c(o1)[C@H]1CC[C@H](C1)C2O` (stereo partly drawn) [Compound 49, (5R,8S)-N-((1,2,3,5,6,7-hexahydro-s-indacen-4-yl)carbamoyl)-4-hydroxy-5,6,7,8-tetrahydro-4H-5,8-methanocyclohepta[b]furan-2-sulfonamide], the half-inhibitory concentration (IC50) lay in the range of 0.1 to 1 µM. The molecule `CC(C)c1ccc(Cl)c(C(C)C)c1NC(=O)NS(=O)(=O)c1cc2c(o1)C1CCC(C1)C2O` (stereo not shown) [Compound 25, N-((3-chloro-2,6-diisopropylphenyl)carbamoyl)-4-hydroxy-5,6,7,8-tetrahydro-4H-5,8-methanocyclohepta[b]furan-2-sulfonamide] registered an IC50 of 0.1 to 1 µM.

On to `CC(C)c1ccc(F)c(C(C)C)c1NC(=O)NS(=O)(=O)c1cc2c(o1)C1CCC(C1)C2(C)O` (stereo not shown) [Compound 36, N-((3-fluoro-2,6-diisopropylphenyl)carbamoyl)-4-hydroxy-4-methyl-5,6,7,8-tetrahydro-4H-5,8-methanocyclohepta[b]furan-2-sulfonamide], for which the IC50 is less than 0.1 µM. As for `CC(C)c1cccc(C(C)C)c1CC(=O)NS(=O)(=O)c1cc2c(o1)C1CCC(C1)C2O` (stereo not shown) [Compound 15, 2-(2,6-diisopropylphenyl)-N-((4-hydroxy-5,6,7,8-tetrahydro-4H-5,8-methanocyclohepta[b]furan-2-yl)sulfonyl)acetamide], the half-inhibitory concentration (IC50) was 1 to 10 µM.

What is called IC50 is the point on the concentration scale where inhibition reaches its midpoint. Read a high IC50 as weaker potency in that assay.

For the origin of these results see patent US12351564B2, “NLRP3 modulators” (Zomagen Biosciences Ltd, priority 2019, dated 2025).
